Measurements as given in patent publication US10035790B2, “RORγ modulators” (BRISTOL-MYERS SQUIBB COMPANY, priority 2012, dated 2018).
pIC50: −log10 of the molar value.

Molecular target: T1, ligand binding domain of human RORγ (A262-S507) (Homo sapiens, UniProt P51449)
T1 construct: made in house; host or cells: E. coli
T1 sequence (P51449 262-507): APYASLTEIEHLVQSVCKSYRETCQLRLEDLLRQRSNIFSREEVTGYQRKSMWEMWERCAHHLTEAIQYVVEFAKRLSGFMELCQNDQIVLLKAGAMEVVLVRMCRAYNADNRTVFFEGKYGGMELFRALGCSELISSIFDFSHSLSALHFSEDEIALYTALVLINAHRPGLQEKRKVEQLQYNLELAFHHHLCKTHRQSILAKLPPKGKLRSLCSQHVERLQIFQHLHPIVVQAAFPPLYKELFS
Assay: General RORγ SPA binding assay (competition with [3H]25-hydroxycholesterol)
Conditions: RORγ SPA binding assay, inhibition of [3H]25-hydroxycholesterol binding; read-out: IC50
In short: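 Scintillation counts from copper His-tag SPA beads (4 mg/mL, 30 min) gave percent inhibition of radioligand binding, from which IC50 values are derived. The E. coli-expressed His-tagged domain (50 nM) is first exposed to compound for 15 min at room temperature in PBS containing 0.5% fatty acid free BSA.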

| Compound | pIC50 |
| --- | --- |
| Cc1ncc(C(=O)NCc2ccccc2)c(C2CCN(C(=O)Cc3c(F)cccc3F)CC2)n1 [Compound A69, N-benzyl-4-(1-(2-(2,6-difluorophenyl)acetyl)piperidin-4-yl)-2-methylpyrimidine-5-carboxamide] | 6.84 |
| Cc1cc(CNC(=O)c2cnc(C)nc2C2CCN(C(=O)Cc3c(F)cccc3F)CC2)ccn1 [Compound A70, 4-(1-(2-(2,6-difluorophenyl)acetyl)piperidin-4-yl)-2-methyl-N-((2-methylpyridin-4-yl)methyl)pyrimidine-5-carboxamide] | 6.67 |
| Cc1ncc(C(=O)NCc2ccc(Cl)nc2)c(C2CCN(C(=O)Cc3c(F)cccc3F)CC2)n1 [Compound A71, N-((6-chloropyridin-3-yl)methyl)-4-(1-(2-(2,6-difluorophenyl)acetyl)piperidin-4-yl)-2-methylpyrimidine-5-carboxamide] | 6.62 |
| Cc1ncc(C(=O)NCc2cnc(Cl)s2)c(C2CCN(C(=O)Cc3c(F)cccc3F)CC2)n1 [Compound A72, N-((2-chlorothiazol-5-yl)methyl)-4-(1-(2-(2,6-difluorophenyl)acetyl)piperidin-4-yl)-2-methylpyrimidine-5-carboxamide] | 6.50 |
| Cc1cc(CNC(=O)c2cnc(C)nc2C2CCN(C(=O)Cc3c(F)cccc3F)CC2)cc(C)n1 [Compound A73, 4-(1-(2-(2,6-difluorophenyl)acetyl)piperidin-4-yl)-N-((2,6-dimethylpyridin-4-yl)methyl)-2-methylpyrimidine-5-carboxamide] | 6.37 |
| Cc1ncc(C(=O)NCc2ccc(C(F)(F)F)nc2)c(C2CCN(C(=O)Cc3c(F)cccc3F)CC2)n1 [Compound A74, 4-(1-(2-(2,6-difluorophenyl)acetyl)piperidin-4-yl)-2-methyl-N-((6-(trifluoromethyl)pyridin-3-yl)methyl)pyrimidine-5-carboxamide] | 6.21 |
| COC(=O)C(NC(=O)c1cnc(C)nc1C1CCN(C(=O)Cc2c(F)cccc2F)CC1)c1cccc(Cl)c1 (stereo not drawn) [Compound A75, methyl 2-(3-chlorophenyl)-2-(4-(1-(2-(2,6-difluorophenyl)acetyl)piperidin-4-yl)-2-methylpyrimidine-5-carboxamido)acetate] | 6.12 |
| Cc1ncc(C(=O)NC(C)c2cccc(Cl)c2)c(C2CCN(C(=O)Cc3c(F)cccc3F)CC2)n1 (stereo not drawn) [Compound A76, N-(1-(3-chlorophenyl)ethyl)-4-(1-(2-(2,6-difluorophenyl)acetyl)piperidin-4-yl)-2-methylpyrimidine-5-carboxamide] | 5.95 |
| CCNC(=O)c1cc(CNC(=O)c2cnc(C)nc2C2CCN(C(=O)Cc3c(F)cccc3F)CC2)ccn1 [Compound A77, 4-(1-(2-(2,6-difluorophenyl)acetyl)piperidin-4-yl)-N-((2-(ethylcarbamoyl)pyridin-4-yl)methyl)-2-methylpyrimidine-5-carboxamide] | 5.87 |
| Cc1ncc(C(=O)NCc2cc(C)n(C)n2)c(C2CCN(C(=O)Cc3c(F)cccc3F)CC2)n1 [Compound A78, 4-(1-(2-(2,6-difluorophenyl)acetyl)piperidin-4-yl)-N-((1,5-dimethyl-1H-pyrazol-3-yl)methyl)-2-methylpyrimidine-5-carboxamide] | 5.75 |
| Cc1cnc(CNC(=O)c2cnc(C)nc2C2CCN(C(=O)Cc3c(F)cccc3F)CC2)cn1 [Compound A79, 4-(1-(2-(2,6-difluorophenyl)acetyl)piperidin-4-yl)-2-methyl-N-((5-methylpyrazin-2-yl)methyl) pyrimidine-5-carboxamide] | 5.28 |
| Cc1cc(C)cc(CNC(=O)c2c(C)nc(C)nc2C2CCN(C(=O)Cc3c(F)cccc3F)CC2)c1 [Compound A80, 4-(1-(2-(2,6-difluorophenyl)acetyl)piperidin-4-yl)-N-(3,5-dimethylbenzyl)-2,6-dimethylpyrimidine-5-carboxamide] | 8.01 |
| Cc1nc(C)c(C(=O)NCc2cccc(Cl)c2)c(C2CCN(C(=O)Cc3c(F)cccc3F)CC2)n1 [Compound A81] | 8.28 |
| Cc1nc(C)c(C(=O)NCc2cccc(C(F)(F)F)n2)c(C2CCN(C(=O)Cc3c(F)cccc3F)CC2)n1 [Compound A82, 4-(1-(2-(2,6-difluorophenyl)acetyl)piperidin-4-yl)-2,6-dimethyl-N-((6-(trifluoromethyl)pyridin-2-yl)methyl)pyrimidine-5-carboxamide] | 8.21 |
| Cc1nc(C)c(C(=O)NCc2ccnc(C#N)c2)c(C2CCN(C(=O)Cc3c(F)cccc3F)CC2)n1 [Compound A83, N-((2-cyanopyridin-4-yl)methyl)-4-(1-(2-(2,6-difluorophenyl)acetyl)piperidin-4-yl)-2,6-dimethylpyrimidine-5-carboxamide] | 7.34 |
| Cc1cc(C)cc(CNC(=O)c2c(C(C)C)nc(C)nc2C2CCN(C(=O)Cc3c(F)cccc3F)CC2)c1 [Compound A84, 4-(1-(2-(2,6-difluorophenyl)acetyl)piperidin-4-yl)-N-(3,5-dimethylbenzyl)-6-isopropyl-2-methylpyrimidine-5-carboxamide] | 5.78 |
| CSc1ncc(C(=O)NCc2ccc(Cl)c(Cl)c2)c(C2CCN(C(=O)Cc3c(F)cccc3F)CC2)n1 [Compound A85, N-(3,4-dichlorobenzyl)-4-(1-(2-(2,6-difluorophenyl)acetyl)piperidin-4-yl)-2-(methylthio)pyrimidine-5-carboxamide] | 7.36 |
| COc1ncc(C(=O)NCc2ccc(Cl)c(Cl)c2)c(C2CCN(C(=O)Cc3c(F)cccc3F)CC2)n1 [Compound A86, N-(3,4-dichlorobenzyl)-4-(1-(2-(2,6-difluorophenyl)acetyl)piperidin-4-yl)-2-methoxypyrimidine-5-carboxamide] | 8.15 |
| O=C(NCc1cccc(Cl)c1)c1cnc(NCCO)nc1C1CCN(C(=O)Cc2c(F)cccc2F)CC1 [Compound A87, N-(3-chlorobenzyl)-4-(1-(2-(2,6-difluorophenyl)acetyl)piperidin-4-yl)-2-((2-hydroxyethyl)amino)pyrimidine-5-carboxamide] | 8.77 |
| CN(C)c1ncc(C(=O)NCc2cccc(Cl)c2)c(C2CCN(C(=O)Cc3c(F)cccc3F)CC2)n1 [Compound A88, N-(3-chlorobenzl)-4-(1-(2-(2,6-difluorophenyl)acetyl)piperidin-4-yl)-2-(dimethylamino)pyrimidine-5-carboxamide] | 8.27 |
| Nc1ncc(C(=O)NCc2cccc(Cl)c2)c(C2CCN(C(=O)Cc3c(F)cccc3F)CC2)n1 [Compound A89, 2-amino-N-(3-chlorobenzyl)-4-(1-(2-(2,6-difluorophenyl)acetyl)piperidin-4-yl)pyrimidine-5-carboxamide] | 8.24 |
| CNc1ncc(C(=O)NCc2cccc(Cl)c2)c(C2CCN(C(=O)Cc3c(F)cccc3F)CC2)n1 [Compound A90, N-(3-chlorobenzyl)-4-(1-(2-(2,6-difluorophenyl)acetyl)piperidin-4-yl)-2-(methylamino)pyrimidine-5-carboxamide] | 8.20 |
| CCNc1ncc(C(=O)NCc2cccc(Cl)c2)c(C2CCN(C(=O)Cc3c(F)cccc3F)CC2)n1 [Compound A91, N-(3-chlorobenzyl)-4-(1-(2-(2,6-difluorophenyl)acetyl)piperidin-4-yl)-2-(ethylamino)pyrimidine-5-carboxamide] | 8.17 |
| COc1ncc(C(=O)NCc2cccc(Cl)c2)c(C2CCN(C(=O)Cc3c(F)cccc3F)CC2)n1 [Compound A92, N-(3-chlorobenzyl)-4-(1-(2-(2,6-difluorophenyl)acetyl)piperidin-4-yl)-2-methoxypyrimidine-5-carboxamide] | 8.00 |
